In patent publication US20140242712A1, “FLUORESCENCE DETECTION OF POISON OAK OIL” (priority 1999, published 2014):

Key:
[1] = in protic solvent; cited from earlier work
[2] = storage stability of the boronic acid on exposure to air; format: physicochemical; conditions: without taking any precautions to avoid exposure to air

stability of the sample on storage [2]	Structure (SMILES)	rate constant k of reduction of nitroxide by phenols (hydrogen transfer) [1] [M⁻¹ s⁻¹]
	Cc1c(C)c2c(c(C)c1O)CCC(C)(C(=O)O)O2 (stereo not shown) [TROLOX]	0.2
stable for over a year	CCCCB(O)O [n-butyl boronic acid]	
	Cc1cc(C(C)(C)C)c(O)c(C(C)(C)C)c1 [BHT]	0.003
	O=C(O)c1cc(O)c(O)c(O)c1 [gallic acid]	0.003
